# Patent US4985445A, “Cancer cell metastasis inhibitors and novel compounds” (Meiji Seika Kaisha, Ltd., priority 1988, dated 1991)
# Counter-ions that a name gives are not always drawn. Like-named read-outs stand apart in the source and are kept apart here.
# Assays:
# [1] = system: B16 subline of high pulmonary metastatic potential; test: Inhibition of pulmonary metastasis of B16 subline pretreated with compound and injected i.v. into BDF1 mice; assay type: in vivo, murine; mouse BDF1; settings: for Inhibition of metastasis to the lungs (in words): B16 subline, BDF1 mice
# Description: Based on the method described priviously (Method in Cancer Research, 15, 399-439, 1978), a subline of high metastatic potential (high pulmonary colonization) was selected from murine melanoma B16 by repeating the i.v. transplantation of the tumor cells in BDF1 mice and the isolation of pulmonary metastatic clones.
# Evaluation of the metastasis inhibiting activity was performed based on the method described previously (Proc. Natl Acad. Sci. USA, 83, 1752-1756, 1986, Cancer Research, 46, 858-862, 1986).
# Firstly, the B16 subline of high metastatic potential was inoculated into Dulbecco's ME medium (DME medium) supplemented with 10% bovine fetal serum and the compound represented by general formula (I) described above was added thereto.
# The B16 subline of high pulmonary metastatic potential was inoculated into DME medium supplemented with 10% bovine fetal serum and 30, 100 or 300 μg/ml of N (3-phenylpropyl)-1-deoxynojirimycin was added thereto followed by incubation at 37° C. for 3 days in the presence of 5% CO2.
# Inhibition of metastasis was examined in a manner similar to Test Example 2 except that N-(3-phenyl-2-propenyl)-1-deoxy-nojirimycin and N-(3-p-chlorophenyl-3-methyl-2-propenyl)-1-deoxynojirimycin were used instead of N-(3-phenylpropyl)-1-deoxynojirimycin in Test Example 2. In this test example, however, 2.5×10^5 cells each of the B16 subline were transplanted to 3 mice for each group.
# The B16 subline of high pulmonary metastatic potential was inoculated into DME medium supplemented with 10% bovine fetal serum and 30 μg/ml of N-(4-phenoxy-trans-2-butenyl)-1-deoxynojirimycin was added thereto followed by incubation at 37° C. for 3 days in the presence of 5% CO2. […] The number of colonies of the B16 subline formed on the surface of and in the lung was counted.
# Inhibition of metastasis was examined in a manner similar to Test Example 5 except that N-(2-phenoxyethyl)-1-deoxynojirimycin was used instead of N-(4-phenoxy-trans-2-butenyl)-1-deoxynojirimycin in Test Example 5.
# The B16 sibline of high pulmonary metastatic potential was inoculated into DME medium supplemented with 10% bovine fetal serum and 10 μg/ml of D-glucaro-δ-lactam calcium salt was added thereto followed by incubation at 37° C. for 3 days in the presence of 5% CO2. […] The number of the colonies formed on the surface of and in the lung was counted.
# Inhibition of metastasis was examined in a manner similar to Test Example 8 except that D-glucaro-δ-lactam methyl ester and D-glucaro-δ-lactam ethyl ester were used instead of D-glucaro-δ-lactam calcium salt in Test Example 8.
# The B16 subline of high pulmonary metastatic potential was inoculated into DME medium supplemented with 10% bovine fetal serum and 10 μg/ml of 2,6-di-O-(acetylsalicyloyl)-D-gluco-δ-lactam was added thereto followed by incubation at 37° C. for 3 days in the presence of 5% CO2.
# The B16 subline of high pulmonary metastatic potential was inoculated into DME medium supplemented with 10% bovine fetal serum and 30 μg/ml of 6-O-triphenylmethyl-D-gluco-δ-lactam was added thereto followed by incubation at 37° C. for 3 days in the presence of 5% CO2.
# The B16 subline of high pulmonary metastatic potential was inoculated into DME medium supplemented with 10% bovine fetal serum and 30 μg/ml of 1-deoxynojirimycin was added thereto followed by incubation at 37° C. for 3 days in the presence of 5% CO2.
# [2] = Acute toxicity (LD50) by mice; settings: mouse, in vivo
# [3] = system: B16 subline of high pulmonary metastatic potential; settings: 3 days;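 note: + means growth and ± means marked inhibition and - means cell death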
# Description: (§1) The B16 subline of high pulmonary metastatic potential and murine tumor cell line L 929 were cultured in DME medium supplemented with 10% bovine fetal serum at 37° C. in the presence of 5% CO2. Then, cells were detached from the Petri dish with trypsin-EDTA solution. The B16 subline and L 929 were suspended in the medium described above in 1×10^4 cells/ml and 1×10^3 cells/ml, respectively. Each suspension, 150 μl, was added to 50 μl of N-(3-phenylpropyl)-1-deoxynojirimycin solution or Adriamycin (control) solution. Incubation was performed for 3 days for the B16 subline and for 4 days for L 929 strain.
# as §1, with “of N-(4-phenoxy-trans-2-butenyl)-1-deoxynojirimycin” for “of N-(3-phenylpropyl)-1-deoxynojirimycin”, “days in” for “days for”, “L 929.” for “L 929 strain.”
# as §1, with “of D-glucaro-δ-lactam calcium salt” for “of N-(3-phenylpropyl)-1-deoxynojirimycin”, “(control) solutions.” for “(control) solution.”, “days in” for “days for”, “L 929.” for “L 929 strain.”
# The B16 subline of high pulmonary metastatic potential and murine tumor cell line L 929 were cultured in DME medium supplemented with 10% bovine fetal serum at 37° C. in the presence of 5% CO2. Then, cells were detached from the Petri dish with trypsin-EDTA solution. The B16 subline and L 929 were suspended in the medium described above in 1×10^4 cells/ml and 1×10^3 cells/ml, respectively. Each suspension, 150 μl, was added to 50 μl of 2,6-di-O-(1-(p-chlorobenzoyl)-5-methoxy-2-methylindole-3-acetyl)-D-gluco-δ-lactam solution or and Adriamycin (control) solutions. Incubation was performed for 3 days in the B16 subline and for 4 days in L 929.
# The B16 subline of high pulmanary metastatic potential and murine tumor cell line L 929 were cultured in DME medium supplemented with 10% bovine fetal serum at 37° C. in the presence of 5% CO2. Then, cells were detached from the Petri dish with trypsin-EDTA solution. The B16 subline and L 929 were suspended in the medium described above in 1×10^4 cells/ml and 1×10^3 cells/ml, respectively. Each suspension, 150 μl, was added to 50 μl of 6-O-triphenylmethyl-D-gluco-δ-lactam solution or Adriamycin (control) solutions. Incubation was performed for 3 days in the B16 sibline and for 4 days in L 929.
# The B16 subline of high pulmonary metastatic potential was inoculated into DME medium supplemented with 10% bovine fetal serum and 30 μg/ml of 1-deoxynojirimycin was added thereto followed by incubation at 37° C. for 3 days in the presence of 5% CO2. […] Next, the cells were detached from the Petri dish with trypsin-EDTA solution. The cells were suspended in PBS- in 1×10^6 cells/ml as viable cells. This suspension, 0.1 ml, was intravenously injected in the tail vein of the mouse BDF1 (8 week age, male; 1 group, 3 mice). After feeding for 14 days, the mouse was sacrificed to excise the lungs. The number of colonies of the B16 subline on the surface of and in the lungs was counted.
# [4] = system: murine tumor cell line L 929; test: Cytotoxic activity against L 929 (growth observed with inverted microscope, 4 days); assay type: cell-based; settings: for Growth: 4 days;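 for growth: + means growth and ± means marked inhibition and - means cell death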
# Description: The B16 subline of high pulmonary metastatic potential and murine tumor cell line L 929 were cultured in DME medium supplemented with 10% bovine fetal serum at 37° C. in the presence of 5% CO2.
# The B16 subline of high pulmanary metastatic potential and murine tumor cell line L 929 were cultured in DME medium supplemented with 10% bovine fetal serum at 37° C. in the presence of 5% CO2.
# [5] = Table 10, 30 μg/ml, None 82 ± 11.2
smiles,measurement,setting,value
"OC[C@H]1NC[C@H](O)[C@@H](O)[C@@H]1O [1-Deoxynojirimycin, 1-deoxynojirimycin]",Inhibition of metastasis to the lungs (in words),[1],the number of colonies on the surface of and in the lungs was markedly inhibited
same,Pulmonary Metastasis (Mean ± Standard Deviation),"[1]; Table 15, 30 μg/ml, 3 mice, None 119 ± 37",31 ± 11 no.
"CC(=O)Oc1ccccc1C(=O)OC[C@H]1NC(=O)[C@H](OC(=O)c2ccccc2OC(C)=O)[C@@H](O)[C@@H]1O [2,6-di-O-(acetylsalicyloyl)-D-gluco-δ-lactam]",LD50,[2]; ip,> 500 mg/kg
same,Inhibition of metastasis to the lungs (in words),[1],markedly inhibited
same,Pulmonary Metastasis (Mean ± Standard Deviation),"[1]; Table 12, 10 μg/ml, 3 mice, None 53 ± 22.4",11.2 ± 3.5 no.
"COc1ccc2c(c1)c(CC(=O)OC[C@H]1NC(=O)[C@H](OC(=O)Cc3c(C)n(C(=O)c4ccc(Cl)cc4)c4ccc(OC)cc34)[C@@H](O)[C@@H]1O)c(C)n2C(=O)c1ccc(Cl)cc1 [2,6-di-O-[1-(p-chlorobenzoyl)-5-methoxy-2-methylindole-3-acetyl]-D-gluco-δ-lactam]",Growth,"[3]; Table 11, B16 subline, 10 μg/ml",+
same,Cytotoxicity (in words),"[4]; L 929, even at a concentration as high as 10 μg/ml",did not show marked cytotoxity
same,Growth,"[4]; Table 11, L 929, 3 μg/ml",+
same,Growth,"[4]; Table 11, L 929, 10 μg/ml",+
same,Growth,"[4]; Table 11, L 929, 30 μg/ml",+
"COc1cccc2c1C(=O)c1c(O)c3c(c(O)c1C2=O)C[C@@](O)(C(=O)CO)C[C@@H]3O[C@H]1C[C@H](N)[C@H](O)[C@H](C)O1 [Adriamycin, reference compound]",Growth,"[3]; Table 2, B16 subline, 0.1 μg/ml, control",-
same,Growth,"[3]; Table 5, B16 subline, 0.1 μg/ml, control",-
same,Growth,"[3]; Table 8, B16 subline, 0.1 μg/ml, control",-
same,Growth,"[3]; Table 11, B16 subline, 0.1 μg/ml, control",-
same,Growth,"[3]; Table 13, B16 subline, 0.1 μg/ml, control",-
same,Growth,"[4]; Table 2, L 929, 1 μg/ml, control",-
same,Growth,"[4]; Table 5, L 929, 1 μg/ml, control",-
same,Growth,"[4]; Table 8, L 929, 1 μg/ml, control",-
same,Growth,"[4]; Table 11, L 929, 1 μg/ml, control",-
same,Growth,"[4]; Table 13, L 929, 1 μg/ml, control",-
"O=C(O)[C@H]1NC(=O)[C@H](O)[C@@H](O)[C@@H]1O [D-Glucaro-δ-lactam calcium salt, D-glucaro-δ-lactam calcium salt]",Growth,"[3]; Table 8, B16 subline, 10 μg/ml",+
same,Growth,"[3]; Table 8, B16 subline, 30 μg/ml",+
same,Cytotoxicity (in words),"[4]; L 929, even at a concentration as high as 30 μg/ml",did not show marked cytotoxicity
same,Growth,"[4]; Table 8, L 929, 10 μg/ml",+
same,Growth,"[4]; Table 8, L 929, 30 μg/ml",+
same,Inhibition of metastasis to the lungs (in words),[1],markedly inhibited
same,"Pulmonary Metastasis, Mouse 1","[1]; Table 9, 10 μg/ml, 14 days",7 no.
same,"Pulmonary Metastasis, Mouse 2","[1]; Table 9, 10 μg/ml, 14 days",4 no.
same,"Pulmonary Metastasis, Mouse 3","[1]; Table 9, 10 μg/ml, 14 days",0 no.
same,Pulmonary Metastasis (Mean ± Standard Deviation),"[1]; Table 9, 10 μg/ml, 14 days, None 69 ± 1.0",3.7 ± 3.5 no.
same,"Pulmonary Metastasis, %","[1]; Table 9, 10 μg/ml, None = 100",5.4%
"CCOC(=O)[C@H]1NC(=O)[C@H](O)[C@@H](O)[C@@H]1O [D-Glucaro-δ-lactam ethyl ester, D-glucaro-δ-lactam ethyl ester]",Inhibition of metastasis to the lungs (in words),[1],markedly inhibited
same,Pulmonary Metastasis (Mean ± Standard Deviation),[1]; [5],13 ± 5.4 no.
"COC(=O)[C@H]1NC(=O)[C@H](O)[C@@H](O)[C@@H]1O [D-Glucaro-δ-lactam methyl ester, D-glucaro-δ-lactam methyl ester]",LD50,[2]; iv,> 5000 mg/kg
same,LD50,[2]; po,> 10000 mg/kg
same,Inhibition of metastasis to the lungs (in words),[1],markedly inhibited
same,Pulmonary Metastasis (Mean ± Standard Deviation),[1]; [5],21 ± 8.5 no.
O=C(O)[C@H]1NC(=O)[C@H](O)[C@@H](O)[C@@H]1O [D-Glucaro-δ-lactam sodium salt],LD50,[2]; iv,> 3000 mg/kg
same,LD50,[2]; po,> 5000 mg/kg
"OC[C@@H]1[C@@H](O)[C@H](O)[C@@H](O)CN1CCOc1ccccc1 [N-(2-Phenoxyethyl)-1-deoxynojirimycin, N-(2-phenoxyethyl)-1-deoxynojirimycin]",Inhibition of metastasis to the lungs (in words),[1],markedly inhibited
same,Pulmonary Metastasis (Mean ± Standard Deviation),"[1]; Table 7, 100 μg/ml, None 86 ± 22.1",7 ± 2.1 no.
CC(=CCN1C[C@H](O)[C@@H](O)[C@H](O)[C@H]1CO)c1ccc(Cl)cc1 [N-(3-p-chlorophenyl-3-methyl-2-propenyl)-1-deoxynojirimycin],Inhibition of metastasis to the lungs (in words),[1],markedly inhibited
OC[C@@H]1[C@@H](O)[C@H](O)[C@@H](O)CN1CC=Cc1ccccc1 [N-(3-phenyl-2-propenyl)-1-deoxynojirimycin],LD50,[2]; ip,> 500 mg/kg
same,Inhibition of metastasis to the lungs (in words),[1],markedly inhibited
same,Pulmonary Metastasis (Mean ± Standard Deviation),"[1]; Table 4, 30 μg/ml, 2.5×10^5 cells, 3 mice, None 109 ± 32.0",16.8 ± 12.6 no.
